Measured values: patent publication US20250049741A1, “COMPOSITION FOR PREVENTING OR TREATING ALZHEIMER'S DISEASE COMPRISING PHOSPHOLIPASE C ACTIVATOR AS AN ACTIVE INGREDIENT” (Korea University Research and Business Foundation, priority 2021, published 2025)

Test system: PLCβ1
Test: Western blot of PLCβ1 in rat hippocampal slices
Format: cell-based, Sprague-Dawley rats
Conditions: AβO+m-3M3FBS-treated rat hippocampal slices; similar to DMSO-treated slices
Protocol: Soluble AβO was prepared according to a previous study (BMC Biol. 2020; 18(1):7). Specifically, Aβ1-42 (Aβ) and a scrambled form of Aβ as a control peptide were purchased in powder form. Aβ and scrambled Aβ were dissolved for monomerization in 1,1,1,3,3,3-hexafluoro-2-propanol (HFIP, Sigma Aldrich, USA) at a final concentration of 1 mM, and the solution was incubated for 90 minutes. After the HFIP was evaporated, the remaining thin and clear film of Aβ or scrambled Aβ was dissolved in dimethyl sulfoxide (DMSO, Sigma Aldrich, USA) to prepare 5 mM Aβ or scrambled Aβ stocks, which were aliquoted and frozen at −20° C. Aβ or scrambled Aβ stocks were thawed and diluted to 100 μM in artificial cerebrospinal fluid (ACSF). Thereafter, Aβ or scrambled Aβ stocks were incubated for oligomerization for 18 hours. […]
Hippocampal PLCβ1 of SD rats and C57BL/6 or 5XFAD mice were prepared from homogenized hippocampi dissolved in 200 μL of RIPA buffer (Bio-Rad, USA), and were resolved on non-reducing 10% tris-glycine-sodium dodecyl sulfate-polyacrylamide gel electrophoresis (SDS-PAGE) gels (Bio-Rad, USA) using 4×Laemmli sample buffers (Bio-Rad, USA). […] Immunoreactivity was confirmed with enhanced chemiluminescence (Bio-Rad, USA) using a Fluorchem E system (ProteinSimple, USA) and analyzed with ImageJ software. […]

Cc1cc(C)c(S(=O)(=O)Nc2cccc(C(F)(F)F)c2)c(C)c1 [m-3M3FBS]
PLCβ1 protein levels in AβO-treated slices: completely restored
